Assays:
[1] = In-vitro break-down (liver) for humans; type: in vitro ADME; settings: human liver in vitro
[2] = target: T1, human androgen receptor (hAR) (Homo sapiens, UniProt P10275); experiment: hAR transactivation in PC3 cells stably transfected with hAR and MTV-luc reporter gene; type: cell-based; settings: MTV-luc reporter
T1 construct: expressed in transfected cells; host or cells: PC3 (human prostate carcinoma) cells, stably transfected with hAR and MTV-luc reporter
T1 sequence (P10275 1-920): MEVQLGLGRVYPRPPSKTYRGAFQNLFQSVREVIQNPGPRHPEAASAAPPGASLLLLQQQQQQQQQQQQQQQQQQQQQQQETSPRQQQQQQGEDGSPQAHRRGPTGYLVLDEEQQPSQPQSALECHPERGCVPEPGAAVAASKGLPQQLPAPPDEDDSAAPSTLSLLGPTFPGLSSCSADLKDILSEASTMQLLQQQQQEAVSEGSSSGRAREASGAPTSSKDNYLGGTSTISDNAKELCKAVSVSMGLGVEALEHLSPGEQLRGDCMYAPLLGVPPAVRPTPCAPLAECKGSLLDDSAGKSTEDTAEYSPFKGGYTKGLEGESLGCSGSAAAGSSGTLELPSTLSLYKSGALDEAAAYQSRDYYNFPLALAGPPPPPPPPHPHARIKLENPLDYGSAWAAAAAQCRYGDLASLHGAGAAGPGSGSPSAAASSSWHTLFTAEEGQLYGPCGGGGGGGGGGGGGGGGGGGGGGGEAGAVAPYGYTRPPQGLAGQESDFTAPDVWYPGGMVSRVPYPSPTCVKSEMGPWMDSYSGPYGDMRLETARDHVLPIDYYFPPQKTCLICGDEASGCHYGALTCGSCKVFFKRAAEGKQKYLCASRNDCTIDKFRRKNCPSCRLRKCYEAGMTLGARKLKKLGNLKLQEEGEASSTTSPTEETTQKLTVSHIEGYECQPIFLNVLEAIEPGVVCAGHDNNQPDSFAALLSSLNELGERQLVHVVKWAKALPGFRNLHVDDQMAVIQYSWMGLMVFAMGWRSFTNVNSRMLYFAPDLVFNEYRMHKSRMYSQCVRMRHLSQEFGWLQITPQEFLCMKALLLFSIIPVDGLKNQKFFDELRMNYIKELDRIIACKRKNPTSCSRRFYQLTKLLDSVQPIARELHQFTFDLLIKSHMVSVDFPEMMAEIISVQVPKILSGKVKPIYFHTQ
Text: The action on the human androgen receptor (hAR) was studied by means of transactivation analyses. For this, different concentrations of the test substances were to cells with stable expression of the human androgen receptor, and activation of the androgen receptor can be detected via a reporter gene.
For transactivation studies, PC3 (human prostate carcinoma) cells which have been stably transfected with hAR and the MTV-luc reporter gene were used. The culture medium used was RPM! medium (without L-glutamine; without Phenol Red) #E15-49 PAA L-glutamine 200 mM #25030-024 Gibco BRL 100 U/100 μg/ml penicillin/streptomycin Gibco # 15140-122, with 10% foetal calf serum (FCS). The cells were cultured at 37° C. and 5% CO2. The test medium corresponded to the culture medium, except that 10% FCS was replaced with 5% activated carbon-treated FCS (CCS). Cells were seeded in wells of a 96 well plate (“CulturPlate” from Packard #6005180) with 2×10^4 cells/well/200 μl of test medium. The cells were incubated with different concentrations of the test substances, and 80 μl of substrate were measured using the “steadylite HTS Reporter Gene Assay System” from Perkin Elmer.

[3] = tested on: serum LH level of ovary-resected rats; experiment: Serum luteinizing hormone (LH) level in ovary-resected rats carrying IUS (rod); type: in vivo, rat; settings: FIG. 2/4
Procedure: Serum levels of luteinizing hormone (LH) are used for detecting systemic effects of the locally administered progestin. Basal serum-LH levels of ovary-resected rats are elevated compared to the levels of intact control animals. Undesired systemic efficacy of the uterine-administered progestin can be detected by a decrease in the LH level.
(§1) Ovary-resected female rats were treated with estradiol (E2) for three days (0.2 μg/day/animal, subcutaneous dosing). On day 4, an IUS (rod) was implanted into the right uterine horn of each animal. The left uterine horn remained untreated for internal comparison. Administration of E2 was continued with a daily dose of 0.1 μg/animal to ensure responsiveness of the uterus (maintaining progesterone-receptor expression) to progestins. Blood was taken for LH level measurements on days 4, 10 and 17.

[4] = tested on: uterus of ovary-resected rats; experiment: Uterine weight gain after implantation of progestin-containing IUS (rod) in ovary-resected rats; type: in vivo, rat; settings: ovary-resected E2-treated rats, IUS (rod) in right uterine horn, FIG. 1/4
Procedure: (§2) The local uterine action of the progestin compared to systemic side effects (dissociation) was investigated on the basis of studies using rats. The uterus of ovary-resected rats responds to implantation of progestin-containing IUS (rods) with decidualization and weight gain. The local progestin effects were also determined on the basis of changes in gene expression.
as §1

[5] = In-vitro metabolic studies (liver); type: in vitro ADME; settings: all in-vitro metabolic studies (liver)
[6] = Break-down in vivo in animal species; settings: all animal species studied in vivo
[7] = tested on: IGFBP-1 gene expression; experiment: Gene expression analysis in rat uterine tissue after IUS (rod) administration; type: in vivo; settings: rat uterus, FIG. 3/4
Procedure: as §2
as §1, with “17. […]” for “17.”
Gene expression analysis was carried out with from 50 ng to 200 ng of cDNA per reaction on an SDS7900HT Real.time PCR system (Applied Biosystems, Carlsbad, USA) using TaqMan probes (Applied Biosystems; IGFBP-1 Rn00565713_m1, Cyp26a1 Rn00590308_m1, PPIA Rn00690933_m1) and the Fast Blue qPCR MasterMix Plus (Eurogentec, Liège, Belgium; #RT-QP2X-03+FB). For relative quantification, cyclophilin A (PPIA) was used as an endogenous control. Relative expression levels were calculated according to the comparative delta delta CT method.

Compound | break-down rates in vitro (liver) for humans [1] | EC50 [2] [nM] | LH decrease (systemic side effect) ([3]; compound B release range tested 1-45 μg/animal and day) | local efficacy by way of weight gain in the IUS-carrying uterine horn [4] | break-down rate in in-vitro metabolic studies (liver) [5] | break-down rate in vivo [6] | LH decrease (systemic side effect) ([3]; 10 μg/animal and day dose of compound A) | LH decrease (systemic side effect) ([3]; compound A release range tested 0.6-10 μg per animal and day (except the 10 μg dose)) | rate of release from the IUS at which IGFBP-1 gene expression is induced, lower than with levonorgestrel [7]
CC[C@]12CCC3C4CCC(=O)C=C4[C@H]4C[C@H]4C3C1[C@@H]1C[C@@H]1[C@@]21CCCO1 (stereo partly drawn) [compound B, 18-methyl-6α,7α,15β,16β-dimethylene-19-nor-20-spirox-4-en-3-one] | very rapid | 56 | no LH decrease | dose-dependent local efficacy | very fast | very fast |  |  | 
CC[C@]12CCC3C4CCC(=O)C=C4CCC3C1[C@@H]1C[C@@H]1[C@@]21CCCO1 (stereo partly drawn) [compound A, 18-methyl-15β,16β-methylene-19-nor-20-spirox-4-en-3-one] | very rapid | 6.9 |  | dose-dependent local efficacy | very fast | very fast | exception | no LH decrease | approx. 7 ×

From patent US20150065472A1, “INTRAUTERINE APPLICATION OF 18-METHYL-15SS,16SS-METHYLENE-19-NOR-20-SPIROX-4-EN-3-ONE SYSTEMS, INTRAUTERINE SYSTEMS CONTAINING 18-METHYL-15SS,16SS-METHYLENE-19-NOR-20-SPIROX-4-EN-3-ONE, AS WELL AS THE USE THEREOF IN CONTRACEPTION AND GYNAECOLOGICAL THERAPY” (BAYER PHARMA AKTIENGESELLSCHAFT, priority 2012, published 2015)
